The record followed here is the OPERA property sets (Mansouri et al. 2018).

Each structure is given as a SMILES string.

Details in the first data set: not given
As usually defined, the melting point is the temperature, or range, at which the solid turns liquid. `CN1C(CSCC(F)(F)F)Nc2cc(Cl)c(S(N)(=O)=O)cc2S1(=O)=O` (stereo not drawn) gave a melting point of 214 °C.

As usually defined, the boiling point is the temperature of boiling at a given pressure. In turn, `COC(=O)C(C)C(C)=O` (stereo not drawn) registered a boiling point of 177 °C.

Compound `CCCOCOCCC` showed a boiling point of 140 °C and a melting point of -97.3 °C.

On to `CCCCCCC(C)Nc1ccc(Nc2ccccc2)cc1` (stereo not drawn), for which the ready biodegradability result is “not readily biodegradable”.

In turn, `Cc1coc2ccccc2c1=O` registered a melting point of 68 °C.

Regarding `Nc1ccc2ccc3ccccc3c2c1`, the melting point was determined as 143 °C.

Turning to `CO/C=C(/C(=O)OC)c1ccccc1Oc1cc(Oc2ccccc2C#N)ncn1`, the log10 vapour pressure (mmHg) is -12.1 and the melting point came out at 116 °C.

`CCN(CCO)c1ccc(/N=N/c2ccc([N+](=O)[O-])cc2Cl)cc1` yielded a melting point of 133 °C.

With `N#C[S-].[K+]`, the melting point was determined as 173 °C.

`Cc1cc(N)c2ccccc2n1` registered a boiling point of 333 °C and a melting point of 169 °C.

With `Cc1cc(C)cc(N)c1`, the boiling point turned out to be 220 °C, the melting point came out at 9.8 °C and the ready biodegradability result was “not readily biodegradable”.

Consider `CCC(=O)Cc1ccccc1`, for which the boiling point is 230 °C.

For the compound `CC(C)CCNCCC(C)C`, the boiling point came out at 188 °C and the melting point is -44 °C.

As for `c1ccc2c(c1)-c1cccc3c1c-2cc1ccccc13`, the log10 Henry constant (atm·m³/mol) was -6.18, the log10 biodegradation half-life (days) amounted to 2.45, the log10 vapour pressure (mmHg) was -6.3 and the melting point is 168 °C.

In the case of `CC1Cc2ccccc2N1NC(=O)c1ccc(Cl)c(S(N)(=O)=O)c1` (stereo not drawn), the melting point was 161 °C.

For `CCc1sccc1C`, the boiling point is 161 °C.

In turn, `CCC(=O)c1ccc(Br)cc1` displayed a melting point of 48 °C.

For `C=C(C)c1ccc(O)cc1`, the ready biodegradability entry was “not readily biodegradable”.

Compound `CSC(=O)c1cccc2nnsc12` came in with a boiling point of 267 °C, a log10 vapour pressure (mmHg) of -5.48 and a melting point of 133 °C.

As for `O=C(O)c1ccc2cc(C(=O)O)ccc2c1`, the ready biodegradability entry was “not readily biodegradable”.

As to `COP(=S)(OC)Oc1ccc(S(=O)(=O)N(C)C)cc1`, the melting point was 53 °C and the ready biodegradability result is reported as “readily biodegradable”.

For `Cc1cc(-c2ccc(N)c(C)c2)ccc1N`, the boiling point is 339 °C, the melting point amounted to 132 °C and the ready biodegradability result is listed as “not readily biodegradable”.

Turning to `NC(=O)OCc1ccccc1`, the melting point is 88 °C.

`C=C[Si](OCC)(OCC)OCC` came in with a log10 vapour pressure (mmHg) of 0.358.

In turn, `CCCCCS(=O)CCCCC` gave a melting point of 58 °C.

The compound `CC(C)C=CCl` came in with a boiling point of 87 °C.

`CCC(C)(C)C(=O)Cl` yielded a boiling point of 132 °C.

`Cc1cc(Br)ccc1[N+](=O)[O-]` returned a melting point of 78 °C.

As for `CC1=CC(=O)C=C(C)C1=O`, the melting point stood at 72.5 °C.

Take `CCCOC(OCCC)OCCC`: the boiling point came out at 191 °C.

In the case of `CC[N+](C)(CC)CCOC(=O)C1c2ccccc2Oc2ccccc21.[Br-]`, the melting point stood at 174 °C.

For `CC1CC(O)CC(C)(C)C1` (stereo not drawn), the boiling point was found to be 196 °C and the melting point turned out to be 46.5 °C.

`CCC1CC1` came in with a boiling point of 35.9 °C and a melting point of -149 °C.

The compound `CC(=O)Nc1ccc([N+](=O)[O-])cc1` had a melting point of 216 °C.

With `O=C(O)C(F)(F)C(F)(F)C(F)(F)F`, the boiling point came out at 121 °C, the log10 vapour pressure (mmHg) turned out to be 0.804 and the melting point was -17.5 °C.

`CCCCCCCCCCCCCCCCCCc1ccccc1` gave a boiling point of 408 °C and a melting point of 29 °C.

In the case of `C=COC=O`, the log10 vapour pressure (mmHg) was found to be 2.5.

The compound `Cc1c2ccccc2nc2ccccc12` showed a melting point of 118 °C.

Compound `CC(CCCl)OCCCl` (stereo not drawn) had a boiling point of 195 °C.

Consider `O=C(O)c1ccc(-c2ccccc2)cc1`, for which the melting point is 228 °C.

For the compound `CCC(N)C(=O)O` (stereo not drawn), the melting point is 304 °C.

`CCC(O)CC` showed a boiling point of 116 °C and a log10 vapour pressure (mmHg) of 0.943.

The compound `CN1CCC(N(Cc2ccccc2)c2ccccc2)CC1` returned a melting point of 115 °C.

In turn, `OCC(F)(F)C(F)F` yielded a boiling point of 110 °C, a log10 Henry constant (atm·m³/mol) of -5.2, a log10 vapour pressure (mmHg) of 1.17 and a melting point of -15 °C.

Compound `CCCCC(O)(CCCC)CCCC` had a melting point of 20 °C.

In the case of `OCC=Cc1ccccc1`, the log10 vapour pressure (mmHg) is -1.62, the melting point came out at 33 °C and the ready biodegradability entry is given as “readily biodegradable”.

As for `CO[C@H]1O[C@H](CO)[C@@H](O)[C@H](O)[C@H]1O`, the melting point turned out to be 168 °C.

In the case of `CO[C@H]1[C@H](O)[C@H](O[C@H]2CC[C@@]3(C=O)[C@H](CC[C@@H]4[C@@H]3CC[C@]3(C)[C@@H](C5=CC(=O)OC5)CC[C@]43O)C2)O[C@@H](C)[C@@H]1O`, the melting point is 162 °C.

Compound `CC(C)CBr` registered a boiling point of 91.1 °C and a melting point of -119 °C.

Consider `Oc1c(Cl)cc(Cl)cc1Sc1cc(Cl)cc(Cl)c1O`, for which the melting point came to 188 °C.

The compound `CC(C)(C)c1ccc(CCOc2ncnc3ccccc23)cc1` had a log10 vapour pressure (mmHg) of -7.59 and a melting point of 78.5 °C.

On to `CCCCC(=O)O`, for which the boiling point was determined as 186 °C, the log10 Henry constant (atm·m³/mol) was -6.33, the log10 vapour pressure (mmHg) was -0.708 and the melting point was -34 °C. Moreover, the ready biodegradability result is recorded as “readily biodegradable”.

Turning to `ClCC(Cl)(Cl)CCl`, the boiling point was 165 °C, the log10 vapour pressure (mmHg) turned out to be 0.484 and the ready biodegradability entry was “not readily biodegradable”.

`C#CC(C)OC(=O)Nc1cccc(Cl)c1` (stereo not drawn) yielded a log10 Koc (L/kg) of 2.21, a log10 vapour pressure (mmHg) of -4.8 and a melting point of 45.5 °C.

The compound `C#C[C@]1(O)CC[C@H]2[C@@H]3CCc4cc(OC5CCCC5)ccc4[C@H]3CC[C@@]21C` yielded a melting point of 108 °C.

`COc1cc2c(cc1OC)C(=O)NCC2` displayed a melting point of 175 °C.

On to `Clc1ccc2c(c1)Oc1c(Cl)c(Cl)c(Cl)c(Cl)c1O2`, for which the log10 Koa is 10.7, the log10 vapour pressure (mmHg) was -9.18 and the melting point amounted to 195 °C.

`COc1cc2c(c(O)c1OC)C(C)N(C)CC2` (stereo not drawn) yielded a melting point of 112 °C.

Take `c1ccc2c(Nc3cccc4ccccc34)cccc2c1`: the melting point came to 115 °C.

For `CC(C)CCCCCCCOC(=O)c1ccccc1C(=O)OCCCCCCCC(C)C`, the log10 vapour pressure (mmHg) is -6.28, the melting point was -45.6 °C and the ready biodegradability entry is reported as “readily biodegradable”.

`COP(=O)(O)OC` came in with a boiling point of 174 °C.

In turn, `Clc1cc2ccccc2c(Cl)c1Cl` came in with a log10 Koa of 7.66 and a log10 vapour pressure (mmHg) of -4.7.

Consider `Oc1c(Cl)cc(Cl)c2ccccc12`, for which the melting point came to 108 °C and the ready biodegradability result is on record as “not readily biodegradable”.

The compound `O=S(=O)(O)CCCN1CCOCC1` displayed a melting point of 284 °C.

Take `CCCCCCCCCCCCCCCCCO`: the boiling point turned out to be 333 °C, the melting point turned out to be 53.8 °C and the ready biodegradability entry is given as “readily biodegradable”.

In the case of `O=C(CCCN1CC=C(n2c(=O)[nH]c3ccccc32)CC1)c1ccc(F)cc1`, the melting point is 146 °C.

The compound `CCCCCCCCCC[C@H](O)CC` registered a melting point of 32 °C.

In turn, `Nc1ccc(S(=O)(=O)Nc2cnccn2)cc1` yielded a melting point of 251 °C.

As to `Fc1cc2c(cc1F)Oc1cc(Cl)c(Cl)cc1O2`, the log10 vapour pressure (mmHg) was -7.76 and the melting point was 223 °C.

Take `ClCCC(Cl)Cl`: the boiling point was found to be 146 °C and the melting point was -59 °C.

Compound `O=c1c(O)c(O)c(=O)c1=O` came in with a melting point of 150 °C.

The same data set, now with this note: fish.
`O=C(O)c1ccc2cc(C(=O)O)ccc2c1`: the log10 BCF came out at 0.81.

The compound `Cc1cc(-c2ccc(N)c(C)c2)ccc1N` gave a log10 BCF of 1.67.

`ClCC(Cl)(Cl)CCl` had a log10 BCF of 1.57 and a log10 biotransformation half-life (days) of -0.28.

On to `CC(C)CCCCCCCOC(=O)c1ccccc1C(=O)OCCCCCCCC(C)C`, for which the log10 BCF was 1.16.

For `Oc1c(Cl)cc(Cl)c2ccccc12`, the log10 BCF turned out to be 1.35.

As for `Clc1cccc(-c2c(Cl)cccc2Cl)c1Cl`, the log10 biotransformation half-life (days) was 2.18.
